One test deals with T1, apoE4/Aβ42 binding (Homo sapiens, UniProt P02649, C130R).
T1 construct: purchased BioVision (Milpitas, CA)
Kind of test: Surface plasmon resonance assay of apoE4/Aβ42 binding inhibition. On the procedure:
Experiments were performed using a Reichert SR7000DC refractometer system (Reichert, New York) equipped with a CM5 sensor chip. Acetate buffer was used for immobilization of the peptide Aβ42 (ligand). […] Importantly, Aβ42 species are considered critical for seeding of amyloid deposits, [32]. CM-dextran on a CM5 gold sensor chip was activated by injecting a solution of 10 mg/mL N-Hydroxysuccinimide (NHS) and 40 mg/mL 1-Ethyl-3-(3-dimethylaminopropyl) carbodiimide (EDC) over the sensor chip surface for 7 min at a flow rate of 20 µL/min. Then the ligand, 50 µg/mL HFIP treated synthetic peptide Aβ42 in 10 mM sodium acetate, pH 4.5, was immobilized by injection over the surface for 20 min. The unreacted sites on the sensor chip surface were blocked by injection of 1 M ethanolamine, pH 8.5 for 10 min. […] After each binding cycle the surface was regenerated by a short, fast injection of 10 mM hydrochloric acid. To verify results analytes containing lipidated human apoE4 molecules or lipidated human apoE3 molecules incubated with peptoid inhibitors in phosphate buffered saline with 0.05% TWEEN 20, pH 7.4 (PBST) were tested and the association and dissociation reactions were monitored.

Test [1] has as its system apoE4 mediated Aβ42 aggregation. Description: Thioflavin T assay of apoE4 mediated Aβ42 aggregation. The format is biochemical, human. How it is done: (§1) Peptide Aβ42 or peptoid CPO_Aβ17-21 P were incubated alone at a concentration of 100 µM over a period of 7–10 days at 37 °C in 100 mM Tris buffer (pH 7.4). […] In aggregation inhibition experiments, apoE4 was pre-incubated with CPO_Aβ17-21 P in a molar ratio of 1:2 for 6 hrs at 37 °C followed by addition to freshly reconstituted Aβ42 on ice (molar ratio 100:1:2, Aβ42:apoE4:peptoid). As a control, Aβ42 was also incubated with CPO_Aβ17-21 P at a molar ratio of 100:2. For peptide Aβ40 all the experiments were conducted under the same conditions as Aβ42 except the peptide concentration was 400 µM. The molar ratio of Aβ40:apoE4:CPO_Aβ17-21 P was 100:1:2. (400 µM Aβ40:4 µM apoE4:8 µM CPO_Aβ17-21 P). Fibril formation by the different peptides at various time points was evaluated by a standard Thioflavin-T assay according to previously published protocols, [33].The samples were diluted in buffer containing 50 mM glycine, 2 µM Thioflavin T pH 9.2, and read on a Molecular Devices SpectraMax M2 spectrophotometer (Sunnyvale, CA) at excitation and emission wavelengths 440 and 482 nm.

The next test relates to APP/PS1 Tg mice. Kind of test: Cognitive tests (radial arm maze, object recognition). Type of test: in vivo. The following applies: 0.2 mg per mouse i.p. twice weekly for 4 months. On the procedure: The effect of CPO_Aβ17-21 P on Aβ deposition was tested in APP/PS1 Tg mice with plaque pathology. This AD mouse model develops plaque pathology from the age of 3 months. Animals were divided into two groups and received intraperitoneally (i.p.) injections of 0.2 mg of CPO_ Aβ17–21 P per mouse in sterile saline (n = 11, 5 male, 6 female) or saline alone (n = 10, 5 male, 5 female) as a control twice weekly for 4 months, beginning at age 3 months. During the treatment, veterinary staff monitored animals for any signs of toxicity, such as changes in body weight, physical appearance, and altered behavior. Animals were sacrificed a week after administration of the last treatment dose and behavioral testing. All mouse care and experimental procedures were compliant with guidelines of animal experimentation and were approved by the Institutional Animal Care and Use Committee at the New York University School of Medicine. […]
Spatial learning (working memory) was tested using a radial arm maze with eight radial 30-cm-long arms originating from the central space. […] The number of errors (entry into previously visited arms) was recorded during each session.
The spontaneous object recognition test measures short-term memory. […] The amount of time spent exploring each object within a defined zone of the area was automatically recorded by a tracking system (San Diego Instruments, San Diego, CA).

In test [2] the test system is apoE4 mediated Aβ40 aggregation. Description: Thioflavin T assay of apoE4 mediated Aβ40 aggregation. The format is biochemical, human. How it is done: as §1

Numbered stars: 1 amine (or outer) side, 2 acyl side, 3 side chain; on linkers, the order of the positions; unused ones are H or OH. Bridge positions count the residues as written; N and C are the ends. Square brackets hold non-standard residues; d marks the D form. Peptide text beside a SMILES is read from it. ξ: configuration not given here. N(CH2CH2CO)Gly = O=C(CN(CCC(=O)[*:3])[*:1])[*:2]; Nphe = O=C(O)CNCc1ccccc1; Nleu = CC(C)CNCC(=O)O; ξP = O=C(O)C1CCCN1; Sar = CNCC(=O)O

T1 sequence (P02649 19-317 C130R): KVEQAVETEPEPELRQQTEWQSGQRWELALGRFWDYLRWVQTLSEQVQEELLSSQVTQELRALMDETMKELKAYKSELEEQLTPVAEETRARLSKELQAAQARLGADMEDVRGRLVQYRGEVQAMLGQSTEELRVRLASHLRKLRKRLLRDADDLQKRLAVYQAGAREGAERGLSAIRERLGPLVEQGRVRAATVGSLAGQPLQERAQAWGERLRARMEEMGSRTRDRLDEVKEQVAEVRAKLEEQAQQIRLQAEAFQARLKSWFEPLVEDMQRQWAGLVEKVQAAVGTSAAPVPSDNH

Consider `CC(C)CN1CC(=O)N2CCCC2C(=O)N(Cc2ccccc2)CC(=O)N(Cc2ccccc2)CC(=O)N(C)CC(=O)N(CC(N)=O)CCC1=O` (stereo not shown) [CPO_Aβ17-21 P] ([Nleu][ξP][Nphe][Nphe][Sar][N(CH2CH2CO)Gly]-NH2; lactam N-6), for which the “inhibition of apoE4/Aβ42 binding” value on apoE4/Aβ42 binding (SPR, 2:1 molar ratio (peptoid:apoE4)) was 50%; on apoE4/Aβ42 binding (SPR, 8:1 molar ratio (peptoid:apoE4)), “near complete inhibition”. Besides, on apoE4/Aβ42 binding (SPR, immobilised Aβ42, recombinant human apoE4 pre-incubated with peptoid, PBST pH 7.4), the “inhibition of apoE4/Aβ42 binding (library screen)” value is given as “inhibited apoE4/Aβ42 binding”. The IC50 at apoE4/Aβ42 binding (one-site competition nonlinear regression, Fig. 1d legend: lipidated apoE/Aβ binding, read-out: half-maximal inhibition (IC50) of apoE/Aβ binding) was determined as 1.02 nM. Also, the “inhibition of apoE4 mediated Aβ42 aggregation” value in test [1] (100 µM Aβ42, molar ratio 100:1:2 Aβ42:apoE4:peptoid, apoE4 pre-incubated 6 hrs 37 °C, p = 0.0011) is recorded as “significant inhibition”. Besides, the “Aβ42 fibril formation with peptoid versus Aβ42 alone” value in test [1] (Aβ42 + peptoid without apoE4, molar ratio 100:2) is “no significant difference”. Besides, in the test on APP/PS1 Tg mice (p < 0.01 two-way ANOVA treatment effect), the “radial arm maze, number of errors” value was “significant cognitive improvement”. Besides, the novel object recognition entry with APP/PS1 Tg mice (p = 0.016) is “significant cognitive improvement”. For the same compound, the “inhibition of apoE4 mediated Aβ40 aggregation” value in test [2] (400 µM Aβ40:4 µM apoE4:8 µM peptoid, apoE4 pre-incubated with peptoid 6 hrs 37 °C, p = 0.0034) is recorded as “significant inhibition”. The “Aβ40 fibril formation with peptoid versus Aβ40 alone” value in test [2] (Aβ40 + peptoid without apoE4, molar ratio 100:2) is “no significant difference”.

These data come from PMC5556019, “Targeting Apolipoprotein E/Amyloid β Binding by Peptoid CPO_Aβ17-21 P Ameliorates Alzheimer’s Disease Related Pathology and Cognitive Decline” (Scientific Reports, 2017).
